Data reported in a melting point compilation (Tetko et al.; mined from patent text by program, amines drawn as free bases though some values may be those of a salt).
Residues, ends and D or L forms follow the SMILES beside them. *: point of attachment. Boc = CC(C)(C)OC(=O)*

SMILES	melting point [°C]
COc1ccc(CCOC(=O)NC(=O)C(c2ccccc2)c2ccccc2)cc1OC	144
CCOc1nc(=O)n(C(=O)NCCCl)s1	82
CCCCCCC(CCC(=O)OO)CC(=O)OO (stereo unspecified)	51.5 to 52.5
COc1ccc(S(=O)(=O)F)cc1NC(C)=O	162 to 164
COc1ccc(N2CCN(c3c(C)c(C)c4c(c3C)C(=O)C(C)(C)O4)CC2)cc1	144 to 146
Cc1cc(SCc2ccc3cn(-c4ccc(C(F)(F)F)cc4)nc3c2)ccc1OCC(=O)O	142 to 144
N#Cc1ccc(-c2ccc(C(=O)O)s2)cc1	> 300
Cc1ncccc1C(C#N)N1CCN(C(=O)Cc2ccc(OCc3ccc4ccccc4n3)cc2)CC1 (stereo unspecified)	64 to 68
COc1cn(-c2ccc(N3CC(F)C3)cc2F)nc(-c2ccnn2-c2ccccc2)c1=O	162 to 163
Cn1nc(-c2cc3c(cc2F)OCC(=O)N3)c(Cl)c1C(F)(F)F	207
COc1ccc2ccc(NC(=O)c3ccccc3)nc2n1	134
CNC(=O)N(O)C(C)C#Cc1cccc(Oc2ccccn2)c1 (stereo unspecified)	147 to 149
CC(C)=CCSC1=C(O)CC(C)(C)CC1=O	50.5 to 52
CC(C)C(C(=O)NC1CCCCC1)N1CC(=O)NCC(=O)NCC(=O)NCC(=O)NCC(=O)NCC1=O (stereo unspecified)	275
CCC1CCC2(O)C3CC=C4CC(O)CCC4(C)C3CC(O)C12C (stereo unspecified)	228 to 235
CC(=O)OCc1cn(-c2ccccc2)nc1OCc1ccccc1	74 to 75
CS(=O)(=O)c1cc(C(=O)O)ccc1Oc1ccc([N+](=O)[O-])cc1	140 to 150
Fc1cc(OCCBr)ccc1OCc1ccccc1	63 to 65
CSCCC(=O)N(C)c1cnc(-c2cccnc2)s1	116 to 118
CC(=O)NC(C(=O)OCc1cc(C)cc(C)c1)C1c2ccccc2-c2ccccc21 (stereo unspecified)	162 to 164
COc1ccc(CCCC2SC(=O)NC2=O)c2ccc(=O)n(C)c12 (stereo unspecified)	172 to 175
COc1ccc(CSc2c(O)cc(-c3ccccc3)oc2=O)cc1	168 to 170

SMILES	melting point [°C]
COC(=O)CNC(=O)CNC(=O)OC(C)(C)C (Boc-Gly-Gly-OMe)	132 to 135
COCc1cccc(-c2nn(C(C)c3oc4ccccc4c(=O)c3-c3cccc(F)c3)c3ncnc(N)c23)c1 (stereo unspecified)	167 to 170
CC(=O)Nc1nc2c(s1)-c1c(cnn1-c1ccc(C(=O)N3CCC(NC(=O)Cc4ccccc4)CC3)cc1)CC2	271 to 272
C=CCC1(SC(C)=O)C(C)(C)c2ccccc2C1(C)C	65 to 67
COc1ccc(-c2[nH]cnc2-c2cc(OC)c(O)c(OC)c2)cc1F	125 to 127
CCCCCCCCCCCCCCCCCCOc1ccc(NC(=O)c2ccc(O)cc2)cc1	170
CC(C)=Cc1ccc(-c2ccc(C(CC3CCOCC3)c3ccc(S(=O)(=O)C4CC4)cc3)[nH]2)nc1 (stereo unspecified)	114 to 116
CC(=O)NCCCn1cc(C2=C(c3cn(C)c4ccccc34)C(=O)NC2=O)c2ccccc21	132 to 136
C=CCNC(=O)c1ccc(N)cc1Br	115 to 117
CN1C(=O)CCC1(O)c1ccc(Cl)c(N)c1 (stereo unspecified)	154
SC1=NCCN1Cc1ccccc1	177 to 182
COc1ccc(Cn2ccn(C3CCc4ccccc4C3)c2=S)cc1OC (stereo unspecified)	129 to 131
COc1ccc2[nH]c(=O)n3c(=O)[nH]nc3c2c1	> 350
CCCN(CCC)C1Cc2cc3c(cc2C1)C(=O)N(c1ccc(C(N)=O)cc1)C3=O	275 to 276
CC(C)(C)c1cc(I)c(O)c(CNS(=O)(=O)O)c1	172 to 180
CN1CCn2c1nc(C(=O)NCc1ccc(F)cc1)c(O)c2=O	212
CCCCOCCOC(=O)C1=C(C)NN=C(CC)C1c1cccc([N+](=O)[O-])c1 (stereo unspecified)	122
O=Cc1c[nH]c2c1ccc1c3cc(-c4ccc(F)cc4)ccc3[nH]c12	> 250
C=CC(=O)OCCS(=O)(=O)c1ccc(O)cc1	91 to 92
O=c1[nH]c2ncc(-c3ccccc3)nc2n1CC1CCCCC1	253 to 255
CC1(NC(=O)C(F)(F)F)CN(c2c(F)cc3c(=O)c(C(=O)O)cn(CCF)c3c2F)C1	205 to 215
COc1cccc(-c2cn(-c3ccccc3)c3ncnc(N)c23)c1	159 to 160

SMILES	melting point [°C]
CC(C)S(=O)(=O)c1ccc(Oc2ccc(Cl)c(Cl)c2)nc1	91 to 92
CCOC(=O)Cn1c2c([nH]c(=O)c1=O)CCC1=C2C=C(n2ccc(C=O)c2)CC1	> 250
Cc1ccc(S(=O)(=O)c2ccc(N3CCN(C)CC3)cc2N)cc1	148 to 151
CC(C)NC=C1C(=O)COc2ccccc2C1=O	89 to 91
COc1cccc(OCCCNC(=O)OC(C)(C)C)c1-c1cc(Nc2cnc(C#N)cn2)n[nH]1	214 to 216
C=C(C(=O)NC1CCCCC1)c1ccccc1	131 to 133
COC(=O)c1cc(Cl)cc(CC=O)c1O	49 to 59
CSc1nnc(-c2ccco2)s1	128
CC(C)(C)c1ccc(-c2nc(COc3cccc4cc(NS(=O)(=O)C(F)(F)F)ccc34)cs2)cc1	174 to 175
COC(=O)c1nc(CI)n(-c2ccc(Cl)cc2C(=O)c2ccccc2Cl)n1	125 to 128
CC(C)CC(=O)Nc1cc(-c2ccnc3c(C(=O)c4cccs4)cnn23)ccc1Cl	172 to 175
CCOC(=O)c1cn(CC)c2oc(CN3CCOCC3)cc2c1=O	229 to 231
O=C(Nc1ccc(Cl)cc1)NS(=O)(=O)c1ccc2c(c1)OCCO2	191
CCOCCC(Cc1ccc(NC(=O)NC(=O)c2ccc(C(N)=S)cc2)cc1)C(=O)OC(C)(C)C (stereo unspecified)	199 to 201
C#Cc1cc(Nc2ncnc3cnc(N)cc23)ccc1F	218 to 222
CC(=O)COc1cc(C)c(Br)c(C)c1Cc1ccc(C(C)C)cc1	93 to 94
COC(=O)C(C(=O)OC)c1ccc(C(=O)O)cc1[N+](=O)[O-]	147 to 149
COc1ccc2c(c1)C1=C(SCC3(CCN(CC(O)Cc4ccccc4)CC3)O1)C(=O)C2=O (stereo unspecified)	106
NC(CCN1CCC(O)(Cc2ccccc2)CC1)C(=O)c1ccccc1 (stereo unspecified)	123 to 124
O=c1[nH]c2cc(Cl)ccc2n1C1CCN(Cc2cncc(-c3ccccc3)c2)CC1	229 to 231
O=C1CCc2c1ccc1c2CCc2ccccc2-1	127 to 128
CC(=N)Nc1cccc(Br)c1	208 to 210

Further lines, results first:

melting point [°C]	SMILES
89 to 94	O=C(CNC(=O)c1cccc(-c2cccc3oc(Cc4cccc(C(F)(F)F)c4)cc23)c1)NCCO
126	CCC1=C(C(=O)OC)C(c2ccc(C)cc2)C(C#N)=C(CC(C)(C)C)N1 (stereo unspecified)
116 to 121	CCOC(=O)NNC(=O)NCC(=O)OC
61 to 62	CSC(C[C@@H]1CC(=O)N1[Si](C)(C)C(C)(C)C)(SC)SC
121 to 123	CCC(=O)c1cc(Cl)c(Cl)c2c1OCC(CO)O2 (stereo unspecified)
97.6 to 98.8	O=[N+]([O-])c1cccc(Oc2ccc(-c3ccccc3)cc2)c1
90 to 92	CCCCc1oc2ccc(C(N)=O)cc2c1C(=O)c1ccc(OCCCN(CCCC)CCCC)cc1
144 to 145	Cc1nnc(C=Cc2ccccc2OCC(O)CNC2CC2)s1 (stereo unspecified)
114 to 115	COc1cccc(CC(=O)O)c1OCCCc1cn(-c2ccc(C(F)(F)F)cc2)nc1C(C)C
68 to 72	O=C(c1ccccc1)C1CCN(CCS(=O)c2ccc3[nH]c(=O)oc3c2)CC1 (stereo unspecified)
> 300	N#Cc1ccccc1Cc1c(-c2ccc(OC(F)F)c(OC3CC3)c2)[nH]c2cn[nH]c(=O)c12
108 to 112	O=C1C(=CN2CCCC2)c2ccccc2N1c1cccc(Cl)c1
125 to 128	O=C(Nc1ccccc1)C(=O)N1CCC(Cc2ccccc2)CC1
163 to 165	CNc1ccncc1N
107 to 108	CCOC(=O)Cn1c(-c2ccc(OC)cc2)nc2cccnc21
221 to 223	CC(C)(Cc1ccccc1)C(NC(=O)CCc1ccccc1)Nc1c(Nc2cccnc2)c(=O)c1=O (stereo unspecified)
124 to 125	CCCc1c(OCCOc2ccc([N+](=O)[O-])cc2)ccc(C(C)=O)c1O
132	NC(=NO)c1nc(Cl)c(-c2c(F)cccc2Cl)c(Cl)c1Br

melting point [°C]	SMILES
77 to 78	Cn1c(C(F)(F)F)ccc(-c2cc(S(=O)(=O)Cl)c(Cl)cc2F)c1=O
126	CCOC(=O)C1=C(C)NC(N=CN(C)C)=C(C(=O)OCC)C1c1ccccc1[N+](=O)[O-] (stereo unspecified)
118 to 119	CC(C)(C)OC(=O)Nc1cc(OCc2ccccc2)c2ncccc2c1I
273 to 275	COc1cc(-c2c(Cl)c(CN3C(=O)CCC3=O)nc3sc4c(c23)CCN(C(C)=O)C4)ccc1O
90 to 92	CCCC1Oc2cc(OC)c(Cl)c(Cl)c2C1=O (stereo unspecified)
196 to 197	Cc1cc2c(OCc3ccc(-c4nnn[nH]4)cc3)cccc2o1
69 to 71	Fc1ccc(-c2ncnc(C(F)F)c2Cl)c(F)c1
172	Cc1cccc(P(=O)(O)c2cccc(C)c2)c1
263 to 266	FC(F)(F)c1ccc(CN2CC3(COc4cc5c(cc43)CCO5)c3c(-c4cncnc4)cccc32)o1 (stereo unspecified)
125 to 126	CS(=O)(=O)Oc1ccccc1C(=O)O
102 to 108	CC(C)CCC(O)C(CC1CCCCC1)NC(=O)C(Cc1c[nH]cn1)N(C)C(=O)C(Cc1ccccc1)NC(=O)N1CCOCC1 (stereo unspecified)
179 to 180	CC[C@@]1(CC(=O)NCc2ccccc2)CCCN2CCc3c([nH]c4ccccc34)[C@@H]21
125 to 127	CC(CC(C)C1CCC2C3C(O)CC4CC(O)CCC4(C)C3CCC12C)C(=O)O (stereo unspecified)
306 to 312	Cc1[nH]cc2c(=O)n(-c3ccc(Cl)cc3)nc-2c1-c1cccc(I)c1
128	NC1(C2CCCC2)NC=Nc2[nH]cc(-c3cccc(Oc4ccccc4)c3)c21 (stereo unspecified)
180	C[Si](C)(C)C1=CC(=O)C([Si](C)(C)C)=CC1=O
170	COc1ccc2ccc(NC(=O)C3CC3)nc2n1
